Where “and” joins values, the source holds several entries; their conditions need not be identical. Equal entries are not always repeated. Where two headings read alike, the source gives them in different places.
Experiments:
PA pHeps = test: Static cell culture, PA pHeps, low/high propiogenic media; assay type: cell-based, human; conditions: for % change at 30 μM, 13C-Propionyl-CoA (13C-P-CoA): static cell culture; for Percent change (30 μM), 12C-Acetyl-CoA / Percent change (30 μM), CoASH: static culture 1.5 h
Procedure: Unlike the HemoShear Technology, this assay is carried out without constant perfusion, utilizing cell culture media that was customized to mimic plasma levels of propiogenic sources (amino acids and ketoacids) in PA and MMA patients during periods of relative metabolic stability (low propiogenic media) and acute metabolic crisis (high propiogenic media). PA and MMA pHeps, in static cell culture, were treated with Compound 5 (concentrations ranging from 0.1 μM to 100 μM) for 30 minutes in low propiogenic media, followed by either a continuation of low propiogenic media or a switch to the high propiogenic media for 1 hour. The media used during the 1-hour incubation contained propiogenic SIL amino acids and ketoacids which are metabolized into labeled P-CoA and M-CoA in the cells. The SIL amino acids and ketoacids were a mix of ^13C and MeD8 labelling, but their catabolism produced a SIL P-CoA (denoted as ^13C—P-CoA for simplicity) with the same mass, independent of the type of SIL (also true for ^13C-M-CoA).

[1] = test system: primary hepatocytes of methylmalonic acidemia patients; test: Propionyl-CoA and methylmalonyl-CoA from 13C-labelled sources in MMA primary hepatocytes (Example 2); assay type: cell-based, human
Procedure: Primary hepatocytes isolated from livers of methylmalonic acidemia patients are treated with increasing doses of Compound 5 (0, 0.1, 0.3, 1, 3, 10, 30, 100 µM) for 30 min. After 30 minutes the cells are challenged with the different sources of P-CoA, which may include 13C-KIVA (1 mM), ^13C-isoleucine (3 mM), ^13C-threonine (5 mM), ^13C-methionine (5 mM), ^13C-heptanoate (100 μM), or ^13C-propionate (5 mM) for 60 minutes. At the end of the challenge period, media is removed and the cells are lysed with 70% MeCN and 0.1% TFA containing 100 μM of ethymalonyl-CoA as an internal standard and harvested. Cell lysates are processed for HTMS/MS analysis.

[2] = test system: primary hepatocytes (pHeps) from MMA donors; test: HemoShear REVEAL-Tx Technology, MMA pHeps; assay type: cell-based, human
[3] = Phase 2 study preliminary plasma pharmacokinetics in PA/MMA subjects; assay type: in vivo, human; conditions: for C24 / concentration at 24 h: 24 hours post-dose; for C24: C24projected: ratio observed to projected; for AUC(0-t): read-out: AUC0-24 h; for concentration at 24 h: read-out: C24
Procedure: Part A is the dose escalation phase to assess the initial safety and to confirm the pharmacologic activity of Compound 5 in subjects with PA and MMA. Screening for eligibility took place within 28 days of enrollment. All subjects were initially evaluated during a 4-week run-in period followed by within-subject dose escalation of 3 doses (1, 3, and 10 mg/kg QD of sodium 2,2-dimethylbutanoate); dose escalation interval of 4 weeks) to check for improvement in disease-related biomarkers.
Plasma will be analyzed by liquid chromatography with tandem mass spectrometry (LC-MS/MS) with a lower limit of quantitation of 0.100 μg/mL. Samples collected for analyses of Compound 5 (plasma/serum/whole blood)] concentration may also be used to evaluate safety or efficacy aspects related to concerns arising during or after the study.
Preliminary pharmacokinetics (PK) data from the first two subjects of Study described in Examples 7-8 was evaluated at 1 mg/kg, 3 mg/kg and 10 mg/kg of Compound 5 dosed once daily (QD).

[4] = test system: primary hepatocytes of propionic acidemia patients; test: Propionyl-CoA from 13C-labelled sources in PA primary hepatocytes (Example 1); assay type: cell-based, human; conditions: 0-100 μM
Procedure: Primary hepatocytes isolated from livers of propionic acidemia patients are treated with increasing doses of Compound 5 (0, 0.1, 0.3, 1, 3, 10, 30, 100 μM) for 30 minutes. After 30 minutes the cells are challenged with the different sources of P-CoA, which may include 13C-KIVA (1 mM), 13C-isoleucine (3 mM), 13C-threonine (5 mM), 13C-methionine (5 mM), 13C-heptanoate (100 μM), or 13C-propionate (5 mM) for 60 minutes. At the end of the challenge period, media is removed and the cells are lysed with 70% MeCN and 0.1% TFA containing 100 μM of ethymalonyl-CoA as an internal standard and harvested. Cell lysates are processed for HTMS/MS analysis.

[5] = 1 mg/kg QD, single dose, individual subjects 010-1001, 010-1002, preliminary
[6] = 1 mg/kg QD, steady-state, individual subjects
[7] = 3 mg/kg QD, steady-state, individual subjects
[8] = 10 mg/kg QD, steady-state, individual subjects
[9] = human, plasma, oral, 1 mg/kg, 1 mg/kg QD, steady-state, individual subjects
[10] = human, plasma, oral, 10 mg/kg, 10 mg/kg QD, steady-state, individual subjects

AUC0-24 h [3, 5]: 22800 ng·h/mL | Cmax [3, 5]: 1740 ng/mL | C24 [3, 6]: 0.765 µg/mL | AUC0-24 h [3, 6]: 36500 ng·h/mL | Cmax ([3]; 1 mg/kg QD, steady-state, individual subjects 010-1001, 010-1002): 2930 ng/mL | C24: C24projected [3, 6]: 1.27 and 0.829 | C24 [3, 7]: 3.34 µg/mL and 1.01 µg/mL | AUC0-24 h [3, 7]: 115000 ng·h/mL | Cmax ([3]; 3 mg/kg QD, steady-state, individual subjects 010-1001, 010-1002): 11400 ng/mL | C24: C24projected [3, 7]: 1.21 and 0.365 | C24 [3, 8]: 13.1 µg/mL | AUC0-24 h [3, 8]: 678000 ng·h/mL | Cmax ([3]; 10 mg/kg QD, steady-state, individual subjects 010-1001, 010-1002): 50600 ng/mL | C24: C24projected [3, 8]: 0.985 and 1.42 | AUC(0-t) ([3]; human, plasma, oral, 1 mg/kg, 1 mg/kg QD, single dose, individual subjects 010-1001, 010-1002, preliminary): 30800 ng·h/mL | Cmax ([3]; human, plasma, oral, 1 mg/kg, 1 mg/kg QD, single dose, individual subjects 010-1001, 010-1002, preliminary, read-out: Cmax): 2620 ng/mL | concentration at 24 h [3, 9]: 1170 ng/mL | Cmax ([3]; human, plasma, oral, 1 mg/kg, 1 mg/kg QD, steady-state, individual subjects 010-1001, 010-1002, read-out: Cmax): 4410 ng/mL | AUC(0-t) [3, 9]: 56500 ng·h/mL | Cmax ([3]; human, plasma, oral, 3 mg/kg, 3 mg/kg QD, steady-state, individual subjects 010-1001, 010-1002, read-out: Cmax): 15900 ng/mL | AUC(0-t) ([3]; human, plasma, oral, 3 mg/kg, 3 mg/kg QD, steady-state, individual subjects): 189000 ng·h/mL | concentration at 24 h [3, 10]: 9090 ng/mL | Cmax ([3]; human, plasma, oral, 10 mg/kg, 10 mg/kg QD, steady-state, individual subjects 010-1001, 010-1002, read-out: Cmax): 50700 ng/mL | AUC(0-t) [3, 10]: 557000 ng·h/mL
SMILES: CCC(C)(C)C(=O)O [Compound 5, 2,2-dimethylbutyric acid]
% change at 30 μM, 13C-Propionyl-CoA (13C-P-CoA) (PA pHeps; high propiogenic media): −85.3±9.1% | % change at 30 μM, 13C-Propionyl-CoA (13C-P-CoA) (PA pHeps; low propiogenic media): −76.4±12.6% | Percent change (30 μM), 12C-Acetyl-CoA (PA pHeps; high propiogenic media): −27 ± 3.4% | Percent change (30 μM), CoASH (PA pHeps; high propiogenic media): −48 ± 14.3% | Percent change (30 μM), 12C-Acetyl-CoA (PA pHeps; low propiogenic media): −36.6 ± 13.5% | Percent change (30 μM), CoASH (PA pHeps; low propiogenic media): −55.2 ± 7.1% | intracellular propionyl-CoA and methylmalonyl-CoA from all sources investigated [1]: dose-dependent reduction | average reduction in the C3/C2 ratio (log 2 fold change) ([2]; 30 μM): −2.2±0.2 log 2 fold change | % change at 30 μM, 2-Methylcitric acid (2MC) ([2]; average ± SD): −66.7±14.9% | % change at 30 μM, 12C-Acetyl-Carnitine (C2) ([2]; average ± SD): 44.6 ± 26.8% | % change at 30 μM, 12C-Methylmalonyl-CoA (M-CoA) ([2]; average ± SD): −55±6.6% | % change at 30 μM, 12C-Propionyl-Carnitine (C3) ([2]; average ± SD): −65.9±10.7% | % change at 30 μM, 12C-Propionyl-CoA (P-CoA) ([2]; average ± SD): −74.2±11.6% | Percent change at 30 μM, 12C-Acetyl-CoA ([2]; exposed 6 days): 13.5 ± 24.9% | Percent change at 30 μM, CoASH ([2]; exposed 6 days): −22.3 ± 22.3% | intracellular propionyl-CoA from all sources investigated [4]: dose-dependent reduction

From US20240366543A1, “METHODS OF TREATING METHYLMALONIC ACIDEMIA AND PROPIONIC ACIDEMIA” (HemoShear Therapeutics, Inc., priority 2021, published 2024)
